According to patent US20260294927A1, “KIF18A INHIBITOR COMPOUND, AND PHARMACEUTICAL COMPOSITION AND PREPARATION METHOD THEREFOR AND USE THEREOF” (CHANGCHUN GENESCIENCE PHARMACEUTICAL CO., LTD., priority 2022, published 2026):

Test system: OVCAR-3 cells
Experiment: imaging-based nuclear count analysis (NCA) in OVCAR-3 cells
Type: cell-based
Conditions: Homo sapiens, 96 h, 4 days, nuclear count with Hoechst 33342, 0.1% DMSO, low control 10 μM AM-5308
Experimental: Test name: imaging-based nuclear count analysis (NCA) in OVCAR-3 cells
• a) The final test concentrations of AM-5308:10000, 3333.3, 1111.1, 370.3, 123.4, 41.1, 13.7, 4.5, 1.5, 0.5 nM. • b) The final test concentrations of the test compound: 10000, 3333.3, 1111.1, 370.3, 123.4, 41.1, 13.7, 4.5, 1.5, 0.5 nM. • c) The cells were cultured in a 37° C., 5% CO2 incubator for 4 days. • d) DMSO concentration was 0.1%. Day 1 Seeding the Cells into a 384-Well Cell Culture Plate • a) When the cell confluence reached 80%-90%, the cells were treated. • b) The cells were resuspended in a medium and then counted and diluted at a desired density. • c) A cell suspension containing appropriate cells was added to the 384-well plate at 30 μL/well: 600 cells/well. […]
High-reading control wells: cells+30 nL DMSO; low-reading control wells: 10 μM AM-5308.
IC50 (nM) was calculated using GraphPad Prism 8 software and the effect-dose curves of the compound were plotted.

O=C(Nc1cccc2c1nc1n2C2CCC1CC2)c1ccc(NS(=O)(=O)CCO)cc1N1CCC2(CC1)CC2 [Compound 100, 4-(2-hydroxyethanesulfonylamino)-2-(6-azaspiro[2.5]octan-6-yl)-N-(1,2,3,4-tetrahydro-1,4-ethylbenzo[4,5]imidazo[1,2-a]pyridin-6-yl)benzamide]
IC50: 110 nM
